Assay results from patent US12458614B2, “Therapeutic agents for improved mobility and cognitive function and for treating neurodegenerative diseases and lysosomal storage disorders” (priority 2017, dated 2025).
“Also recorded” adds a separate entry of the source.

Tests used:
[1] = test system: patients with downbeat nystagmus; experiment: Case studies, downbeat nystagmus; format: in vivo, human; settings: downbeat nystagmus Patients 1 (10 mg twice daily, four weeks) and 2
[2] = test system: patient with frontotemporal dementia with parkinsonism; experiment: Case study, frontotemporal dementia with parkinsonism; format: in vivo, human; settings: treatment with L-Dopa and Ropinirol
Text: After approximately one month of acetyl-leucine treatment, medication was stopped and the patient was re-examined 13 days later.

[3] = test system: patient with corticobasal syndrome; experiment: Case study, corticobasal syndrome; format: in vivo, human; settings: treatment with L-Dopa
Procedure: Gait analysis was performed before treatment commenced.

[4] = test system: patients with progressive supranuclear palsy; experiment: Case studies, progressive supranuclear palsy; format: in vivo, human; settings: individual PSP patients 1 to 4
Procedure: After 27 days of acetyl-leucine treatment, medication was stopped and the patient was re-examined 60 days later. […] Gait analysis was performed before treatment commenced. After 17 days of treatment, medication was stopped and the patient was re-examined 4 days later. […] Gait analysis was performed before treatment commenced. After three weeks of treatment, medication was stopped and the patient was re-examined.

[5] = test system: patients with multiple system atrophy Parkinson type (MSA-P); experiment: Case studies, multiple system atrophy Parkinson type; format: in vivo, human; settings: MSA-P Patient 3
Text: Medication was stopped. […] The patient evaluated after one month on acetyl-DL-leucine. […] Episodes of mental confusion completely disappeared. The patient's cognitive structure seemed much clearer and straighter. […] The patient's spouse supported continuing the medication.

[6] = test system: patient with Lewy Body dementia; experiment: Case study, Lewy Body dementia; format: in vivo, human; settings: Levodopa 100 mg 4× daily and Quetiapin 25 mg at night
Procedure: The patient started taking acetyl-leucine (3 g/day for one week; 5 g/day thereafter) and was evaluated after four weeks. […] Medication was reduced to 3 g/day, and the patient was instructed to stop medication about two weeks later.

[7] = test system: person with balance disorder/senile gait disorder; experiment: Case study Example 23; format: in vivo, human; settings: treatment with L-Dopa
[8] = test system: patient with progressive gait disorder; experiment: Case study Example 26, quantitative gait analysis; format: in vivo, human; settings: treatment with L-Dopa
[9] = test system: patients with multiple system atrophy Parkinson type (MSA-P); experiment: Case studies, multiple system atrophy Parkinson type; format: in vivo, human; settings: MSA-P Patient 1, 100/25 mg 3× daily
[10] = test system: patients with amyotrophic lateral sclerosis (ALS); experiment: Case studies, amyotrophic lateral sclerosis; format: in vivo, human; settings: ALS Patient 1
Text: The results were documented by video.

[11] = test system: rat model of an acute unilateral labyrinthectomy; settings: acute unilateral labyrinthectomy (Gunther 2015); cited from earlier work

SMILES: Nc1ccncc1 [4-aminopyridine]
- Benefit of prior medication [1]: did not give rise to any benefit
- Benefit of prior medication ([1]; listed as Fampyra®): did not benefit

SMILES: N[C@@H](Cc1ccc(O)c(O)c1)C(=O)O [L-Dopa]
- Response to prior medication [2]: little improvement
- Response to prior medication [3]: no improvement
- Levodopa response [4]: little improvement
- Levodopa response ([4]; listed as levodopa): no levodopa response; also recorded: slight levodopa response
- Tolerability of Levodopa therapy [5]: suspended due to side effects
- Response to prior medication [6]: improved the symptomatology
- Response to prior medication [7]: no improvement
- Response to prior medication [8]: No improvement
- Levodopa response [9]: discreet Levodopa response

SMILES: OCCOCCN1CCN(C2=Nc3ccccc3Sc3ccccc32)CC1 [Quetiapin]
- Response to prior medication [6]: improved the symptomatology

SMILES: Nc1nc2ccc(OC(F)(F)F)cc2s1 [Riluzol]
- Clinical symptomatology under prior medication [10]: remained unchanged

SMILES: CCCN(CCC)CCc1cccc2c1CC(=O)N2 [Ropinirol]
- Response to prior medication [2]: little improvement

SMILES: CC(=O)N[C@@H](CC(C)C)C(=O)O [acetyl-L-leucine]
- postural compensation [11]: significant effect
